Source: patent US20160102074A1, “SUBSTITUTED AMIDE COMPOUNDS” (PFIZER INC., priority 2014, published 2016)

Columns and labels:
[1] = test system: PCSK9; experiment: PCSK9 lowering in sandwich culture human hepatocytes (SCHH); format: cell-based; settings: sandwich culture primary cryopreserved human hepatocytes, secreted PCSK9 by AlphaLISA
Experimental: PCSK9 Lowering and Compound Concentration Determination in Sandwich Culture Human Hepatocytes (SCHH)
Test compound in-vitro pharmacokinetic and pharmacodynamic relationships were measured in sandwich culture primary cryopreserved human hepatocytes. Within these studies SCHH cells (BD Biosciences IVT) were thawed at 37° C. then placed on ice, after which the cells were added to pre-warmed (37° C.) In VitroGRO-HT media and centrifuged at 50×g for 3 min. The cell pellet was re-suspended to 0.8×10^6 cells/mL in InVitroGRO-CP plating medium and cell viability determined by trypan blue exclusion. On day 1, hepatocyte suspensions were plated in BioCoat 96-well plates at a density of 80000 cells/well in a volume of 0.1 mL/well. After 18 to 24 hours of incubation at 37° C. in 5% CO2, cells were overlaid with ice-cold 0.25 mg/mL BD Matrigel Matrix Phenol Red-Free in incubation medium at 0.1 mL/well. Cultures were maintained at 37° C. in 5% CO2 in InVitroGRO-HI (FBS-free media), which was replaced every 24 hours and time course treatments were initiated on day 5. […] Percent PCSK9 lowering versus vehicle treated cells was then determined for each time point and the maximum response (and the corresponding concentration and time when observed) is reported under the Sandwich Culture Hepatocyte (SCHH) PCSK9 lowering summarized in Table 3. […]

[2] = test system: human PCSK9; experiment: In vivo plasma PCSK9 lowering in humanized PCSK9 mice; set-up: species or system mouse; settings: hPCSK9 mice, single oral dose 500 mg/kg, relative to hour zero (baseline) levels
Excerpt: A humanized PCSK9 mouse model was developed to assess compound activity in vivo. This model was established by first generating a transgenic mouse containing the full-length human PCSK9 gene and its promoter through pronuclear injection of the bacterial artificial chromosome (BAC), RP11-627J9, into C57B16J mice. Mice containing the human PCSK9 transgene were then bred with PCSK9 knockout mice on a 129/C57BL6J background (Rashid S, Curtis D E, Garuti R, et al. Decreased plasma cholesterol and hypersensitivity to statins in mice lacking Pcsk9. Proc Natl Acad Sci USA 2005; 102(15):5374-9). […] For example, ethyl (S)-1-{5-[4-(4-{(3-chloropyridin-2-yl)[(3R)-piperidin-3-yl]carbamoyl}-2-fluorophenyl)-1-methyl-1H-pyrazol-5-yl]-1H-tetrazol-1-yl}ethyl carbonate (the parent molecule) was dosed orally and plasma and liver concentrations were measured for the metabolite, N-(3-chloropyridin-2-yl)-3-fluoro-4-[1-methyl-5-(2H-tetrazol-5-yl)-1H-pyrazol-4-yl]-N-[(3R)-piperidin-3-yl]benzamide. Quantitation of human plasma PCSK9 was performed using a commercially available sandwich ELISA kit (R&D Systems, DPC900) incorporating a horse radish peroxidase (HRP) conjugated secondary antibody (R&D Systems, DPC900) to generate a colorimetric signal proportional to PCSK9 concentration per the manufacturer's protocol. […]

SMILES	IC50 [1] [µM]	Percent Plasma PCSK9 Lowering at 4 hours [2] [%]
Cn1ncc(-c2ccc(C(=O)N(c3ncccc3Cl)[C@@H]3CCCNC3)cc2F)c1-c1nn[nH]n1 [Example 3, N-(3-chloropyridin-2-yl)-3-fluoro-4-[1-methyl-5-(2H-tetrazol-5-yl)-1H-pyrazol-4-yl]-N-[(3R)-piperidin-3-yl]benzamide]	63.4	
CCOC(=O)O[C@@H](C)n1nnnc1-c1c(-c2ccc(C(=O)N(c3ncccc3Cl)[C@@H]3CCCNC3)cc2F)cnn1C [Example 7, ethyl (S)-1-{5-[4-(4-{(3-chloropyridin-2-yl)[(3R)-piperidin-3-yl]carbamoyl}-2-fluorophenyl)-1-methyl-1H-pyrazol-5-yl]-1H-tetrazol-1-yl}ethyl carbonate]		72
CCOC(=O)O[C@@H](C)n1nnnc1-c1c(-c2ccc(C(=O)N(c3ncccc3Cl)[C@@H]3CCCNC3)cc2)cnn1C [Example 6, ethyl (S)-1-{5-[1-methyl-4-(4-{(3-chloropyridin-2-yl)[(3R)-piperidin-3-yl]carbamoyl}phenyl)-1H-pyrazol-5-yl]-1H-tetrazol-1-yl}ethyl carbonate]		71
